Source: patent publication US8901337B2, “Metal complexes having dual histone deacetylase inhibitory and DNA-binding activity” (Royal College of Surgeons in Ireland, priority 2009, dated 2014)

Key:
DNA in A2780 cisR cells = assay: Pt binding to DNA in cultured cells (ICP-MS), A2780 cisR; assay type: cell-based, human; details: 4 hours of cell treatment
Protocol: (§1) Pt DNA binding of Pt complexes was measured in SW480 cells (colon cancer) and CH1 cells (lymphoma) or alternatively A2780 P and A2780 cisR cells (sensitive and resistant to cisplatin respectively). The cells were seeded in 60 mm tissue culture dishes with 10 ml of their respective medium. After overnight incubation the medium was removed and replaced with 10 ml of the respective medium containing a platinum complex giving a final concentration of 43 or 40 μM depending on the experiment. The cells were incubated with a given Pt complex for either 2 or 4 h depending on the experiment. The cells were trypsinised and centrifuged. The supernantant was removed and the cells washed twice with 1×PBS and centrifuged. The pellet was re-suspended in DNA buffer to which Proteinase K (20 mg/mL) and 10% SDS were added. After a gentle shake and incubation at 45° C. for two hours, RNAse (100 mg/mL) was added and the cells were incubated at 37° C. overnight. The volume of supernatant was noted and an equal volume of phenol was added.
The resulting mixture was shook for 10 min, then centrifuged for 10 min at 10° C. The supernatant was transferred into a new centrifuge tube (15 ml) and the volume was noted. […] The absorbance of the DNA by was measured by UV spectrophotometry at 260 nm and 280 nm and the concentration of DNA calculated. Platinum bound to DNA was determined by ICP-MS.

A2780 cisR cells = assay: Inhibition of DNA synthesis, BrdU incorporation assay, A2780 cisR; assay type: cell-based, human; details: 72 hr, FIG. 19
Protocol: DNA synthesis was determined using 5-bromo-2-deoxyuridine (BrdU) colourimetric incorporation assay.^18 A2780 P and A2780 cisR cells were seeded into 96 well plates and allowed to adhere overnight. All test agents were added and incubated for 72 hr prior to the addition of BrdU (10 μM per well). Plates were then incubated at 37° C. for 4 h and incorporation was quantified by ELISA (Calbiochem).

[1] = test system: caspase-3 activation in A2780 P cells; assay: Caspase-3 colourimetric assay, A2780 P; assay type: cell-based, human; details: 72 hr, IC50 and IC75, FIG. 20
Protocol: Both floating and attached cells were collected by centrifugation. Cells, at a density of 1.5×10^6 cells/ml were washed with PBS and then re-suspended in chilled cell lysis buffer (supplied in the Caspase-3 colourimetric assay kit, Calbiochem, UK). Cells were incubated on ice for 10 min and then centrifuged for 1 min at 10,000 g. The cytosolic fraction (supernatant) was collected into a fresh tube and 50 μl (2 mg/ml) of each protein sample was transferred to a 96 well plate and diluted with lysis buffer. A 50 μl aliquot of X2 reaction buffer, containing 10 mM DTT was added, followed by 5 μl of 4 mM DEVD-pNA substrate to give a final concentration of 200 μM. The plate was then incubated at 37° C. for 1-2 h. OD was determined at 400 nm using an Anthos HT-II microtitreplate reader. The fold increase in caspase-3 and -9 activities was determined by comparing results to that obtained with un-induced control.

[2] = test system: breast cancer cell line (SKBR); assay: MTS in vitro cytotoxicity, SKBR; assay type: cell-based; details: 72 hours, Table 1, read-out: IC50 values against SKBR
Protocol: All cells were kept in a humidified atmosphere with 5% CO2 at 37° C.; cells from confluent monolayers were removed from flasks by trypsin/EDTA solution and their viability determined by the trypan blue exclusion test.
Cell growth was determined by the [3-(4,5-dimethylthiazol-2-yl)-5-(3-carboxymethoxyphenyl)-2-(4-sulfophenyl)-2H-tetrazolium, inner salt, (MTS test, Promega, Southampton, UK), a colorimetric assay based on the ability of the viable cells to reduce a soluble yellow tetrazolium salt to blue formazan. 10,000 ovarian cancer cells or 3,000 fibroblast cells for example were seeded per well onto 96-well plates in 100 μl of the appropriate culture medium. 24 hr after sowing the cells, the media was removed and the cells were treated by adding 100 μl of the compound media solutions at the appropriate concentrations. cis-[Pt(NH3)2(malSAHA−2H)], cisplatin and cis-[Pt(NH3)2(mal)] were prepared freshly in cell culture media. […] The maximum percentage of dmso present in any well was less than 0.1% (v/v). cis-[Pt(NH3)2(malBel—2H)], belinostat and malbelinostat were freshly prepared in dimethyl formamide (DMF) and diluted in culture media prior to the MTS assay. The maximum percentage of DMF present in any well was 0.5% (v/v). A range of concentrations between 1 μM and 100 μM was used.
After 72 hr of treatment, 20 μl of the MTS reagent was added to each well and the plates incubated for 2 hr at 37° C. […] The percentages of surviving cells relative to untreated controls were determined.

[3] = test system: DNA in SW480 cells (colon cancer); assay: Pt binding to DNA in cultured cells (ICP-MS), SW480; assay type: cell-based; details: 2 hours of cell treatment
Protocol: as §1
The resulting mixture was shook for 10 min, then centrifuged for 10 min at 10° C. The supernatant was transferred into a new centrifuge tube (15 ml) and the volume was noted. To this was added an equal volume of phenol and chloroform/isoamylalcohol (24:1). The resulting mixture was shook for 10 min, then centrifuged for 10 min at 10° C. (3000 RPM). The supernatant was transferred into a new centrifuge tube (15 mL) and the volume was noted. To this was added an equal volume of chloroform. The resulting mixture was shook for 10 min, then centrifuged for 10 min at 10° C. The supernatant was transferred into a new centrifuge tube (15 mL) and the volume was noted. To this was added a volume that is 1/10 of the supernatant of 3 M sodium acetate (Ph 5.2) and three times the volume of cold 100% isopropanol (from freezer). The solution was shook gently until the DNA is precipitated. […] The absorbance of the DNA by was measured by UV spectrophotometry at 260 nm and 280 nm and the concentration of DNA calculated. Platinum bound to DNA was determined by ICP-MS.

A549 (lung cancer cells) = assay: Cellular uptake of Pt (FAAS), A549; assay type: cell-based; details: 10 μM, 72 hours treatment
Protocol: Cellular uptake of Pt compounds was measured in SKBR, SW480, A549, A2780P and CH1 cells. The cells were seeded in 60 mm tissue culture dishes with 10 mL of their respective medium and after overnight incubation, the cells were treated with the Pt complexes for 72 h at 10 μM concentration. The cell monolayers at the end of the incubation with the Pt complexes were washed (twice) with ice-cold phosphate buffered saline (PBS), trypsinized and harvested into cold (4° C.) PBS. Cell suspensions were centrifuged and the pellets were stored in PBS at −80° C. until assayed. Afterward, the pellets were digested by high pressure microwave mineralization and Pt content was determined by flameless atomic absorption spectrophotometry (FAAS). The results of cellular Pt uptake were corrected for adsorption effects. All experiments were made in triplicate.^17

Row | Compound | DNA binding in A2780 cisR compared with cisplatin (in words) (DNA in A2780 cisR cells) | effect on DNA synthesis, BrdU incorporation (A2780 cisR cells) | caspase-3 activity [1] | IC50 [2] | DNA-bound Pt in SW480 ([3]; 43 μM of Pt complexes) | DNA-bound Pt in A2780 cisR (DNA in A2780 cisR cells; 40 μM of Pt complexes) | Uptake of Pt complexes into A549 (A549 (lung cancer cells)) | binding of Pt to DNA in cultured cells (in words) ([3]; SW480 and CH1 cells)
1 | [NH2][Pt]1([NH2])[O]C(=O)C(Cc2ccc(NS(=O)(=O)c3ccc(/C=C/C(=O)NO)cc3)cc2)C(=O)[O]1 [cis-[Pt(NH3)2(malBel−2H)], cis-[Pt(NH3)2(malBel−2H)].1.5H2O] | binds DNA in A2780 P and A2780 cisR cancer cells and to a greater extent than cisplatin | dose-dependant decrease in DNA synthesis | an increase in both Caspase-3 and -9 activities | – | – | – | – | –
2 | N.N.[Cl][Pt][Cl] [cisplatin, cis-[Pt^II(NH3)2Cl2], reference compound] | – | – | – | 7.5 ± 1.2 µM | 38.5 · 10^−15 moles of Pt/μg of DNA | 665 · 10^−15 ± 6 moles of Pt/μg of DNA | 614.85 ± 94.85 pmol Pt/2 × 10^6 cell | –
3 | [NH2][Pt]1([NH2])[O]C(=O)C(Cc2ccc(NC(=O)CCCCCCC(=O)NO)cc2)C(=O)[O]1 [cis-[Pt(NH3)2(malSAHA−2H)], cis-[Pt(NH3)2(malSAHA−2H)].3H2O] | – | – | – | 9.9 ± 1.8 µM | – | – | 6419 ± 619 pmol Pt/2 × 10^6 cell | binds DNA in cultured cells after 2 hours of cell treatment
